According to patent US8071548B2, “Method of reducing injury to mammalian cells” (Nono, Inc., priority 2002, dated 2011):

Legend:
NMDARs = test: NMDA-evoked 45Ca2+ accumulation in cortical cultures; type: cell-based, mouse; conditions: 50 nM pre-treatment
Description: Excitotoxicity and Ca^2+ accumulation measurements were performed identically to the methods described and validated in refs. 4 and 14. I used measurements of propidium iodide fluorescence as an index of cell death, and of radiolabelled ^45Ca^2+ accumulation for Ca^2+ load determinations in sister cultures on the same day. Experimental solutions were as previously described (4). Ca^2+ influx was pharmacologically channeled through distinct pathways as follows: To NMDARs by applying NMDA (×60 min) in the presence of both CNQX (Research Biochemicals Inc.) and nimodipine (Miles Pharmaceuticals), to non-NMDARs by applying kainic acid (×60 min or 24 h) in the presence of both MK-801 (RBI) and nimodipine, and to VSCCs using 50 mM K^+ solution (×60 min) containing 10 mM Ca^2+ and S(−)-Bay K 8644, an L-type channel agonist (300-500 nM; RBI), MK-801 and CNQX. Antagonist concentrations were (in μM): MK-801 10, CNQX 10, nimodipine 2. All three antagonists were added after the 60 min agonist applications for the remainder of all experiments (24 h). A validation of this approach in isolating Ca^2+ influx to the desired pathway in these cortical cultures has been published (4).

[1] = test system: transient middle cerebral artery occlusion; test: Transient MCAO, dose study of infarct size; type: in vivo, Sprague-Dawley rats
[2] = test system: transient unilateral middle cerebral artery occlusion
[3] = test system: transient middle cerebral artery occlusion; test: Transient MCAO, pre-treatment study; type: in vivo, Sprague-Dawley rats
Description: Next, I examined whether pretreatment with Tat-peptides would reduce stroke damage. Experiments were carried out in adult male Sprague-Dawley rats subjected to transient middle cerebral artery occlusion (MCAO) for 90 minutes by the intraluminal suture method (36,37). Animals were fasted overnight and injected with atropine sulfate (0.5 mg/kg IP). After 10 minutes anesthesia was induced with 3.5% halothane in a mixture of nitrous oxide and oxygen (Vol. 2:1) and maintained with 0.8% halothane. Rats were orally intubated, mechanically ventilated, and paralyzed with pancuronium bromide (0.6 mg/kg IV). Body temperature was maintained at 36.5-37.5° C. with a heating lamp. Polyethylene catheters in the femoral artery and vein were used to continuously record blood pressure and to sample blood for gas and pH measurements. […] This produces an extensive infarction encompassing the cerebral cortex and basal ganglia. […] Physiological parameters (body temperature, blood pressure, blood gases) were monitored and maintained throughout the experiment (Table 1). All experimental manipulations and analyses of data were performed by individuals blinded to the treatment groups. The extent of cerebral infarction was measured 24 h after MCAO onset (FIG. 7C inset). The postural reflex test (38), and the forelimb placing test (39) were used to grade neurological function on a scale of 0 to 12 (normal=0; worst=12) during MCAO (at 50 minutes) and 24 h thereafter.

CA1 neurons = test: Electrophysiological recordings in acute hippocampal slices (CA1 neurons); set-up: species or system rat; conditions: 50 nM bath-applied
Description: Electrophysiological Recordings were made in […] hippocampal slices from 20-36 day old Sprague-Dawley rats perfused at room temperature with ACSF containing (in mM) 126 NaCl, 3 KCl, 2 MgCl2, 2 CaCl2, 1.2 KH2PO4, 26 NaHCO3 and 10 glucose and bubbled with 95% O2/5% CO2. Whole-cell recordings of CA1 neurons were performed using the “blind” method with an Axopatch-1D amplifier (Axon Instruments, Foster City, Calif.) at holding potential −60 mV. Pipettes (4-5 MΩ) were filled with solution containing (mM): 135 CsCl, 2 MgCl2, 0.1 CaCl2, 0.5 EGTA, 10 HEPES, 4 Mg-ATP, 0.2 GTP, and 5 QX-314, pH 7.4, 310 mOsm. Field potentials were recorded with glass micropipettes (2-4 MΩ) filled with ACSF placed in the stratum radiatum […] from the cell body layer. Synaptic responses were evoked by stimulation (0.05 ms) of the Schaffer collateral-commissural pathway with a bipolar tungsten electrode in the presence of bicuculline methiodide (10 μM). For INMDA recording, Mg^2+ was removed from and 20 μM CNQX was added in ACSF. Following 10-20 min base line recordings of EPSCs, INMDA and fEPSPs, Tat-peptides were applied in ACSF and recordings were continued for 30 min thereafter.

[4] = Baseline behaviours after single i.v. injection; type: in vivo, Sprague-Dawley rats; conditions: over 4 hours, 0.5-50 nmols/g
[5] = Physiological variables in post-treatment MCAO study; type: in vivo, Sprague-Dawley rats
Description: Next, I examined whether treatment with Tat-NR2B9c could attenuate ischemic neuronal damage in-vivo when given after stroke onset. […] Infarction volume and neurological outcome measurements were performed at times identical to the pre-treatment study. Body temperature, blood pressure and blood gases were monitored throughout the 24 h experiment and maintained equivalent between groups (Table 2).

nNOS = test: NMDA-evoked cGMP formation (surrogate of NO production by nNOS); type: cell-based, mouse; conditions: 50 nM, pre-treated 1 h, NMDA 0-1000 μM
Description: cGMP determinations were performed 10 min after challenging the cultures with NMDA, kainate, or high-K (FIGS. 4c-e) with the Biotrak cGMP enzyme immunoassay system according to the kit manufacturer's instructions (Amersham). Staining for NADPH diaphorase (FIG. 4b) was done as described in ref 12.

## Tat-KLSSIESDV [Tat-NR2B9c]
NMDARs
  uptake of 45Ca2+ produced by applying NMDA: did not alter
[1]; 0.03 nmole/g, 3 h after stroke onset
  efficacy of the lowest dose versus higher doses: equally effective
[1]; 0.03, 0.3, 1 or 3 nmoles/g i.v. 3 h after stroke onset, measured 24 h after MCAO onset
  infarct size versus control dose: significant reduction in infarct size
[2]; 3 nmoles/g i.v. 3 hours after onset of ischemia
  return to pre-surgery weight for 2 consecutive days, earlier than saline or NR2B-AA treated rats: about 1 week
[2]; 6 days following MCA occlusion
  Mean latency to retreat from the open to the closed arm in the elevated plus maze: significant difference from Tat-NR2B-AA
[2]; MCAO 90 min
  Mean (SE) core temperature during surgery: 37.1 (∀0.1)
  Mean (SE) core temperature subsequent to surgery: 37.9 (∀0.2)
  Mean (SE) systolic blood pressure during surgery: 112 (∀6.3)
  Mean (SE) systolic blood pressure prior to surgery: 106 (∀4.3)
  Mean (SE) systolic blood pressure subsequent to surgery: 122 (∀5.5)
[2]; MCAO 90 min, drug i.v. 3 hours after onset of ischemia
  Mean (SE) core temperature prior to surgery: 36.7 (∀0.2)
[2]; a number of days including day 56 post-injury
  individual weight post-surgery versus controls: significantly heavier
[2]; approximately 2 months post-injury
  Morris water maze acquisition phase: No significant group differences
[2]; approximately 2 months post-injury, vs combined control
  Morris water maze memory (time in the target quadrant): significantly reduced memory deficits
[2]; days 36-45
  Barnes maze escape latencies, acquisition phase: consistently shorter mean escape latencies
[2]; days 36-45, relative to controls
  Barnes maze retest (memory): performed significantly better
[2]; difference between day 5 and day 15
  Habituation score for grid crosses in the open field arena: significant difference from Tat-NR2B-AA and Saline
[2]; post-surgery days 5, 9 and 14
  latency in horizontal ladder task: significantly reduced latencies
  number of paw slips in horizontal ladder task: significantly fewer paw slips
[2]; relative to TAT-NR2B-AA and saline
  total infarct area and volume at 62 days post-surgery: reduced total infarct area and volume
[2]; treated at 3 hours post-MCAO
  Mean sensory-motor score over 56 days post-MCAO: significant long-term functional neuroprotection
[3]; 3 nMoles/g i.v. 45 min prior to MCAO, 24 h after MCAO onset
  reduction in cortical infarction: 70.7±11.23%
[3]; 3 nMoles/g i.v. 45 min prior to MCAO, 24 h after MCAO onset, vs controls
  reduction of volume of total cerebral infarction: 54.6±11.27%
[3]; 3 nMoles/g i.v. bolus 45 min prior to MCAO
  24 h neurological scores: trend toward improvement
CA1 neurons
  synaptic responses, total EPSC and AMPA or NMDA components of the EPSC in CA1 neurons: had no effect
[4]
  changes in sensory-motor, open field, or exploratory behaviour: No significant changes
[5]; After MCAo (15 min)
  Body Temperature: 36.8 ± 0.08 °C
  MABP: 119 ± 4 mmHg
[5]; After MCAo (24 hr)
  Body Temperature: 36.4 ± 0.24 °C
  Body weight: 279 ± 8 g
[5]; Before MCAo(15 min)
  Blood gases PCO2: 40.1 ± 1.0 mmHg
  Blood gases PH: 7.43 ± 0.02
  Blood gases PO2: 105 ± 4 mmHg
  Body Temperature: 36.6 ± 0.07 °C
  MABP: 103 ± 5 mmHg
[5]; Before anesthesia
  Body weight: 306 ± 7 g
[5]; During MCAo (15 min)
  Blood gases PCO2: 39.8 ± 0.9 mmHg
  Blood gases PH: 7.43 ± 0.01
  Blood gases PO2: 111 ± 4 mmHg
  Body Temperature: 37.0 ± 0.07 °C
  MABP: 119 ± 8 mmHg
[5]; During MCAo (60 min)
  Body Temperature: 36.7 ± 0.11 °C
  MABP: 143 ± 5 mmHg
[5]; During MCAo (65 min)
  Body Temperature: 36.9 ± 0.08 °C
  MABP: 137 ± 4 mmHg
nNOS
  suppression of NMDA-evoked increase in cGMP (average): 39.5±6.7%
